pEC50: −log10 of the molar value.
Experiments:
[1] = target: BMP on collagen sponge (Homo sapiens, UniProt P12643)
Method: To each well, a 2/16″ diameter collagen sponge (Medtronic) was added. The collagen and peptide solutions were allowed to incubate for 1.5 hours at room temperature. Sponges were then rinsed three times with 200 μL Medtronic buffer at 2200 rpm for 1 minute. To each sponge, a primary antibody directed at BMP (diluted 1:1000; R&D Systems #MAB3552) was added for 1 hour at room temperature. A secondary antibody conjugated to alkaline phosphatase (1:5000) was then incubated in the system for 0.5 hour at room temperature.

[2] = target: T1, BMP-2 (Homo sapiens, UniProt P12643); test: Binding of biotinylated peptides to BMP-2 (FIG. 12); settings: biotinylated peptide
T1 construct: purchased Medtronic
T1 sequence (P12643 283-396): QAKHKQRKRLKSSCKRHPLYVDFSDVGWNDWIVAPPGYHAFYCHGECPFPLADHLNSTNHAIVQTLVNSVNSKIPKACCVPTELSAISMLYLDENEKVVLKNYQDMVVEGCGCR
Method: Briefly, peptide stock solutions were made by dissolving the powder in 100% DMSO to make a 10 mM solution of peptide, water was then added for a final stock concentration of peptide of 1 mM in 10% DMSO. Serial dilutions of the peptide were made in PBS-T. A dilution series of BMP-2 with concentrations ranging from 100 nM to 0.1 nM was immobilized onto the wells of microtiter plates (Immulon-4® HBX from Dynex Technologies, Chantilly, Va.) and blocked with 1% BSA. […] The […] were washed 3 times with PBS-T. Streptavidin-alkaline phosphatase (SA-AP) from USB (United States Biochemical, catalog #11687) was added (1:1000 in PBS-T) and incubated 1 hour at room temperature with shaking. The plates were washed 3 times with PBS-T and the amount of peptide:SA-AP was determined by adding PNPP (Sigma-Aldrich, Inc., SigmaFast tablets, catalog #N1891) and allowing the color to develop for about 10 minutes.
To confirm these BMP binding results, the peptides were also tested in an alternate assay format in which the peptide and BMP2 were allowed to bind in solution and then assayed. Briefly, the peptides were synthesized with a biotin group attached to the ε amino group of a lysine residue at the C-terminus of the peptide. […] The plates were washed with TBS-Tween™ 20 and the antibody binding was detected using the chromogenic AP substrate pNPP. […]

[3] = target: T2, BMP-7 (Homo sapiens, UniProt P18075); test: Binding of biotinylated peptides to BMP-7 (FIG. 12); settings: biotinylated peptide
T2 sequence (P18075 293-431): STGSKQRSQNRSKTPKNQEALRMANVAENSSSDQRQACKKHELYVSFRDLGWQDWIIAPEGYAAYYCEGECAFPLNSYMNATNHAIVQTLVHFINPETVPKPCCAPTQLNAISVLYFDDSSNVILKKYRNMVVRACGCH

[4] = target: T3, BMP-4 (Homo sapiens, UniProt P12644); test: Binding of biotinylated peptides to BMP-4 (FIG. 12); settings: biotinylated peptide
T3 sequence (P12644 293-408): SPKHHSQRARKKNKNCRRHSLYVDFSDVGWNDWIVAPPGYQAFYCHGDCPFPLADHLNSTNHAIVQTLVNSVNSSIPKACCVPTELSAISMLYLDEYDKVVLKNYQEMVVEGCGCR

[5] = for binding to titanium: FIG. 3; for pEC50: read-out: [peptide] ½ maximal signal (relative affinity for titanium), biotin-conjugated peptide, titanium beads, 1 hour room temperature, absorbance 405 nm
Method: AFF6007 and AFF6010 were prepared at 200 μM.
Beads were washed two times with PBS/Tween™ 20.

Substance: DVNSIWMSRVIEWTYDSGSSGKSRSSDSAFSSFSALEGSVVSR-NH2 [AFF7008]
- BMP retained on collagen sponge [1]: increase the amount of BMP on the sponge when compared to no IFBM, but to a lesser extent than AFF7010

Substance: DVNSIWMSRVIEWTYDSGSSGKSSDWGVVASAWDAFEALDASR-NH2 [AFF7017]
- BMP retained on collagen sponge [1]: increase the amount of BMP on the sponge when compared to no IFBM, but to a lesser extent than AFF7010

Substance: DVNSIWMSRVIEWTYDSGSSGKSSFEPLRFPLKGVPVSR-NH2 [AFF7006]
- amount of BMP-2 retained on collagen with increasing IFBM concentration [1]: leads to a larger amount of BMP-2 that is retained on the collagen

Substance: DVNSIWMSRVIEWTYDSGSSGKSSSVDLYFPLKGDVVSR-NH2 [AFF7010]
- BMP retained on collagen sponge [1]: retains more BMP on the sponge than the sponges without IFBM
- amount of BMP-2 retained on collagen with increasing IFBM concentration [1]: leads to a larger amount of BMP-2 that is retained on the collagen

Substance: SRGGEAAAGAWVSFSALESSR [compound 2007]
- binding to BMP-2 [2]: bound
- binding to BMP-7 [3]: bound
- binding to BMP-4 [4]: bound

Substance: SSDWGVVASAWDAFEALDASR [compound 2011]
- binding to BMP-2 [2]: bound
- binding to BMP-7 [3]: bound
- binding to BMP-4 [4]: bound

Substance: SSFEPLRFPLKGVPVSRGSSGKDVNSIWMSRVIEWTYDS-NH2 [AFF7005]
- amount of BMP-2 retained on collagen with increasing IFBM concentration [1]: leads to a larger amount of BMP-2 that is retained on the collagen

Substance: SSSDKCHKHWYCYESKYGGSGSSGK [AFF6007]
- binding to titanium [5]: bind to titanium
- pEC50 [5]: 6.46

Substance: SSSDKSHKHWYSYESKYGGSGSSGK [AFF6010]
- decrease of affinity for titanium on elimination of the cysteine residues of AFF6007 ([5]; AFF6010 versus AFF6007): about 10 fold
- binding to titanium [5]: bind to titanium
- pEC50 [5]: 5.52

Substance: SSSVDLYFPLKGDVVSRGSSGKDVNSIWMSRVIEWTYDS-NH2 [AFF7009]
- amount of BMP-2 retained on collagen with increasing IFBM concentration [1]: leads to a larger amount of BMP-2 that is retained on the collagen

From US8030452B2, “IFBM'S to promote the specific attachment of target analytes to the surface of orthopedic implants” (priority 2004, dated 2011)
